These results are taken from patent publication US10767179B2, “MicroRNA composition for the treatment of neuroblastoma” (THE BOARD OF REGENTS OF THE UNIVERSITY OF TEXAS SYSTEM, priority 2014, dated 2020).

Series [1] has as its system BE(2)-C cells. The series can be described thus: High-content screen: detection and quantification of neurite outgrowth. It is filed as cell-based. Set-up: key: neurite length normalized to the mean of its plate. The note with it: 25 nM miRNA mimic, 4 days transfection, normalized to plate mean. As for the experimental part:
FIG. 2A-2C. HCS screening of miRNA mimics identifies miRNAs that induce neurite outgrowth in BE(2)-C cells. (A-B) 2,500 cells were reverse-transfected with 25 nM miRNA mimics in 96-well plates. After 4 days transfection, relative neurite lengths were quantified as above. (A) The distribution of post-normalized neurite length measurements (grey histogram) for individual miRNA mimics from the screen and the fitted Gamma distribution curve (␣=3.27, ┘=0.444) (B) Correlation between two independent neurite length measurements for one library plate. Cells were transfected with 25 nM mimics in two independent 96-well plates. Normalized neurite lengths were measured as above. Correlation of neurite length between the two plates was analyzed using two-tailed Pearson Correlation with p<0.05 considered significant. (C) The distribution of the neurite lengths for untreated BE(2)-C cells. 2,500 Cells were plated into each well in 96 well plates. After 4 days of culture, neurite lengths were analyzed as above. Shown are the neurite length distribution histogram, the empirical density curve, and the fitted Gamma distribution curve (␣=30.23, ␣=0.033).
Detection and Quantification of Neurite Outgrowth. Cells were plated and treated in 96-well plates. For detecting neurite outgrowth, cells were placed into ZOOM IncuCyte Imaging System (Essen BioScience) and cell images were taken under 20× microscopic magnification. For detecting neurite outgrowth in a time-dependent manner, cell images were taken every 6 h. The neurite lengths associated with each treatment were calculated using the neurite definition defined for each specific cell line using the NeuroTrack system (Essen BioScience).
Analysis of HCS Data. The relative neurite length associated with cells in each well on the screen plates was determined as above. In order to allow for plate-to-plate comparison, neurite length associated with each well in each plate was first internally normalized to the mean of the corresponding plate, and multiple screen plates were then aggregated together to generate the neurite length distribution. The data were then further analyzed to determine the distribution of the unaffected cells as described below, and to identify differentiation-inducing miRNA mimics.
Statistical Analysis. For HCS, p-value for neurite length associated with each miRNA mimic was evaluated by assuming the distribution of neurite lengths follows Gamma distribution, and false Discovery Rate (FDR) was determined by Benjamini-Hochberg correction method for multiple tests (Benjamin, Journal of the Royal Statistical Society Series B (Methodological), 1995, 57(1):12). […] For all other conditions, the statistical significance for each treatment was determined using t-test by comparing the treatment group with control, with p<0.05 considered statistically significant.

The subject of series [2] is BE(2)-C cells. Described as above. It is filed as cell-based. The note with it: 4 days, dose-dependent, vs 0 nM.
Series [3] deals with BE(2)-C cells. The series can be described thus: Endogenous miRNA expression by qRT-PCR in differentiated cells. The conditions noted are these: differentiated BE(2)-C cells. It is filed as cell-based. As to the method: Mrna And Mirna Expression. Total RNA was isolated as previously described (Du et al., Mol Cancer Res, 2009, 7(8):1234-43). mRNA expression profiling was done using the Illumina mRNA WG-6 v3 microarray platform. miRNA expression was measured by qRT-PCR using TaqMan microRNA Assays (Life Technologies) with average expression of RNU44 RNA, RNU19 RNA, GAPDH mRNA and 18s rRNA used as controls for normalizing RNA loading.
A general note: Quantitative PCR measures a nucleic acid by following its amplification.

The subject of series [4] is CDK4. In words: Western blot of endogenous CDK4 protein. It is filed as cell-based. The note with it: miRNA overexpression, 4 days. An excerpt: FIG. 7A-7F. Validation of CDK4 and STAT3 as direct targets that mediate the differentiation-inducing function of miR-506-3p and miR-124-3p. (A) The predicted interactions between miR-506-3p/miR-124-3p and the target sites in the 3′UTR of STAT3 and CDK4 rnRNAs. The seed sequences are underlined. (SEQ ID NOS: 1, 2, 18, 19, 20, 21) (B-C) Validation of the target sites of miR-506-3p and miR-124-3p in the 3′UTRs of (B) CDK4 and (C) STAT3 by luciferase reporter assay. BE(2)-C cells were co-transfected with the indicated vectors and miRNA mimics or control oligo. After 72 h of transfection, cells were lysed and luciferase activity was measured. […] Cells were transfected as above for 4 days, and protein levels were measured by Western blots. […] Cells were transfected with the indicated oligos, and neurite lengths were measured as above after 4 days transfection. Shown are representative cell images analyzed to define neurites and cell body areas (G) and quantification of neurite length under the indicated treatment conditions (H). **, p<0.01; *** , p<0.001; ****, p<0.0001.
Western Blots. […] Protein concentration was determined using the Pierce BCA assay (Thermo Fisher Scientific). […] Bound antibodies were detected with secondary antibodies conjugated with horseradish peroxidase (HRP) visualized by enhanced chemiluminescent (ECL) substrate (Pierce).
On the technique in general: A western blot detects proteins with antibodies after separation by electrophoresis.

In series [5] the test system is BE(2)-C cells. The series can be described thus: Colony Formation Assay. The conditions noted are these: 25 nM mimic, 14 days. It is filed as cell-based. As for the experimental part:
Colony Formation Assay. Cells were transfected as specified and cultured overnight. 500 cells were re-plated in 10 cm dishes. After 14 days, colonies were visualized by staining with 1% crystal violet. Colony numbers and sizes were analyzed using Image J (NIH, Bethesda, Md.).

The test system of series [6] is 3′UTR of STAT3. In words: Luciferase Reporter Assay, STAT3 3'UTR. It is filed as cell-based, human. The conditions noted are these: BE(2)-C cells, 25 nM mimic, 72 h. From the text: (§1) Luciferase Reporter Assay. The segments of the wildtype 3′ UTRs for CDK4 and STAT3 containing the predicted target sites of miR-506-3p and miR-124-3p were cloned from human genomic DNA. Mutant constructs were generated with the seed target site (GUGCCUU (SEQ ID NO:4)) replaced by CACGGUU (SEQ ID NO:5). The 3′ UTRs were cloned downstream of the firefly luciferase coding sequences into the pmirGLO dual-luciferase reporter (Promega), a vector containing both firefly and Renilla luciferase cDNAs under the control of separate promoter/terminator systems. The firefly luciferase was used as the primary reporter for miRNA regulation of the 3′ UTR. The Renilla luciferase is an internal control for normalization. BE(2)-C cells were co-transfected with luciferase reporters (0.8 ng/μl) and miRNA mimics or control oligonucleotide (oligo) (25 nM). Luciferase activities were measured after 72 h using the Dual-Glo Luciferase Assay System (Promega). Firefly luciferase activity was normalized to Renilla luciferase activity to evaluate the effect of the miRNAs.
(In a reporter assay the amount or activity of a reporter protein is the signal.)

Series [7] concerns 3′UTR of CDK4. The series can be described thus: Luciferase Reporter Assay, CDK4 3'UTR. It is filed as cell-based, human. The note with it: BE(2)-C cells, 25 nM mimic, 72 h.
From the text: as §1

“hsa-miR-506-3p: miRNA mimic (Dharmacon), mature sequence UAAGGCACCCUUCUGAGUAGA (SEQ ID NO: 1) (UAAGGCACCCUUCUGAGUAGA(1); as printed in the source, key not given here)”: the “Neurite length (mean ± SD)” value in series [1] is on record as 10.04 ± 3.41. Also, the “Concentration at which induction of neurite outgrowth is significant” value in series [2] stood at 0.1 nM. In addition, in series [3], the “Overexpression of the endogenous miRNA in differentiated cells” value is 380.1±48.4 fold. In addition, the “Endogenous CDK4 protein expression level” value in series [4] is reported as “down-regulate”. The Colony formation result in series [5] is given as “significantly reduce the ability of BE(2)-C to form colonies”. The “Target site in the 3′UTR of STAT3 by luciferase reporter” value in series [6] is on record as “validated”. For the same substance, the “Target site in the 3′UTR of CDK4 by luciferase reporter” value in series [7] is listed as “validated”.
